Laboratory results taken from US20250186396A1, “COMPOSITIONS AND METHODS FOR THE TREATMENT OF GLIOBLASTOMA WITH A DUAL TARGETING ANTI-TUMOR COMPOSITION” (Northwestern University, priority 2023, published 2025).

How the values were obtained:
[1] = test system: U87, PTEN-KO SF763 cells and 005 GSCs; assay: Proliferation (CFSE) and colony formation assays; assay type: cell-based; conditions: BAPN 200 μM or SR9009 5 μM
Procedure: Proliferation (CFSE) assay. Cell proliferation was assessed using the CellTrace carboxy fluorescein succinimidyl ester (CFSE) Cell Proliferation Kit (Invitrogen, #C34554). Briefly, 1×10^6 cells were collected and incubated with CFSE working solution (1:1,000) for 20 minutes at 37° C. The staining was stopped by adding complete cell culture media. After washing, cells were cultured for 3 days with or without the treatment of BAPN (Sigma-Aldrich, #B-A3134, 200 μM), or SR9009 (Cayman, #11929, 5 μM) in the dark and used for flow cytometry analysis. The percentage of CFSE positive peaks over the undivided peak (generation 0) was analyzed using FlowJo v10.8.1.
Colony formation assay. 1×10^3 GBM cells were seeded in each well of 6-well plates with or without the treatment of BAPN (Sigma-Aldrich, #B-A3134, 200 μM), or SR9009 (Cayman, #11929, 5 μM). After 7-10 days, cells were fixed and stained with 0.5% crystal violet in 25% methanol for 1 hour. After three times washing by PBS, the plates were scanned, and the colony number was counted using ImageJ.

[2] = LC-MS/MS quantification of BAPN in plasma and brain; assay type: in vivo, C57BL/6 mice; conditions: BAPN 2 g/L in drinking water; concentration in plasma and brain after 1, 2, 4, 8 hours
Procedure: Mass spectrometry. A high-performance liquid chromatography tandem mass spectrometry (LC-MS/MS) assay was developed to quantify BAPN and SR9009 in plasma and brain of C57BL/6 mice. Specifically, the blood and brain tissues were collected after 1, 2, 4, and 8 hours of the administration of BAPN (2 g/L in drinking water) or SR9009 (100 mg/kg body weight, i.p.). The plasma was generated using the standard centrifugation techniques, and the brain tissues were pulverized by cryogenic grinding with liquid nitrogen. The plasma and brain tissue samples were mixed with internal standards, deproteinized with MeOH, and processed into LC-MS/MS to test the concentration of BAPN or SR9009. The analysis was performed at the Mass Spectrometry Core in Research Resources Center of University of Illinois at Chicago.

OLFML3 = assay: Immunoblots for OLFML3 in GBM cells and GSCs; assay type: cell-based, human and mouse; conditions: immunoblot
Procedure: (§1) Cell Culture. The GBM cell lines U87, U251, SF763, LN229, and CT2A, as well as 293T cells were cultured in Dulbecco's Modified Eagle's Medium (DMEM; Gibco, #11995-065). The mouse glioma cell line GL261 cells and SIM-A9 microglia were cultured in Dulbecco's Modified Eagle Medium-Ham's F12 medium (Gibco, #10565-018). HMC3 microglia were cultured in Eagle's Minimum Essential Medium (ATCC, #30-2003). THP-1 macrophages were cultured in RPMI 1640 medium (Gibco, #11875093). All cell lines were cultured in the indicated medium containing 10% fetal bovine serum (FBS; Fisher Scientific, #16140071) and 1:100 antibiotic-antimycotic (Gibco, #15140-122), and were purchased from the American Type Culture Collection (ATCC). Human GSCs (GSC23 and GSC7-10) and mouse GBM tumor-derived 005 GSCs and QPP7 GSCs were cultured in neural stem cell (NSC) proliferation media (Millipore, #SCM005) containing 20 ng/mL epidermal growth factor (EGF; PeproTech, #AF-100-15) and basic fibroblast growth factor (bFGF; PeproTech, #100-18B). Human GSCs were gifted by Dr. Frederick F. Lang from the Brain Tumor Center (The University of Texas MD Anderson Cancer Center). 005 GSCs and QPP7 GSCs were provided by Dr. Samuel D. Rabkin (Massachusetts General Hospital) and Dr. Jian Hu (The University of Texas MD Anderson Cancer Center), respectively. PTEN CRISPR KO in SF763 and LN229 cells were generated. […]

LOX = assay: Immunoblots for LOX in CT2A cells and 005 GSCs; assay type: cell-based, mouse; conditions: immunoblot, SR9009 5 μM
Procedure: as §1

For N#CCCN [BAPN, β-aminopropionitrile], which GBM cell proliferation [1] is on record?
The GBM cell proliferation was “had no such effect”.

And the “ability to cross the blood-brain barrier (BBB)” value [2]?
The value was “showed an ability to cross the blood-brain barrier”.

What about the “expression of OLFML3” value (OLFML3; human (U87, PTEN-KO SF763, GSC23, GSC7-10) and mouse (CT2A, 005 GSCs) cells, BAPN at indicated concentrations) of the same molecule?
Its value is “increased”.

With CCOC(=O)N1CCC(CN(Cc2ccc(Cl)cc2)Cc2ccc([N+](=O)[O-])s2)C1 (stereo not drawn) [SR9009] as the molecule, how does the GBM cell proliferation [1] read?
Its GBM cell proliferation is “impaired”.

And the “LOX or P65 inhibition-induced OLFML3 upregulation” value (OLFML3; U87 and PTEN-KO SF763 cells, SR9009 5 μM with BAPN 200 μM or SC75741 5 μM)?
Its value is “rescued”.

And the LOX expression (LOX)?
Its LOX expression is “did not affect”.
